Laboratory results as given in PubChem BioAssay (NCI).
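Five compound concentrations were applied to cells in 96-well plates for 48 hours; endpoints were derived by simple linear interpolation of the resulting dose-response curve. At the GI50, growth is halved. TGI: concentration producing complete growth inhibition.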

Tests used:
Assay in all cases: inhibition of tumour cell growth, NCI panel, 48 h
NCI-H23 lung = test system: NCI-H23 lung
MALME-3M melanoma = test system: MALME-3M melanoma
SK-MEL-5 melanoma = test system: SK-MEL-5 melanoma
MOLT-4 leukemia = test system: MOLT-4 leukemia
HT29 colon = test system: HT29 colon
OVCAR-8 ovarian = test system: OVCAR-8 ovarian
PC-3 prostate = test system: PC-3 prostate
HOP-92 NSCLC = test system: HOP-92 NSCLC
CAKI-1 renal = test system: CAKI-1 renal
HCT-116 colon = test system: HCT-116 colon

| SMILES | TGI (NCI-H23 lung) [µM] | TGI (MALME-3M melanoma) [µM] | TGI (SK-MEL-5 melanoma) [µM] | TGI (MOLT-4 leukemia) [µM] | TGI (HT29 colon) [µM] | TGI (OVCAR-8 ovarian) [µM] | TGI (PC-3 prostate) [µM] | TGI (HOP-92 NSCLC) [µM] | TGI (CAKI-1 renal) [µM] | TGI (HCT-116 colon) [µM] | GI50 (NCI-H23 lung) [µM] | GI50 (MALME-3M melanoma) [µM] | GI50 (SK-MEL-5 melanoma) [µM] | GI50 (MOLT-4 leukemia) [µM] | GI50 (HT29 colon) [µM] | GI50 (OVCAR-8 ovarian) [µM] | GI50 (PC-3 prostate) [µM] | GI50 (HOP-92 NSCLC) [µM] | GI50 (CAKI-1 renal) [µM] | GI50 (HCT-116 colon) [µM] |
| --- | --- | --- | --- | --- | --- | --- | --- | --- | --- | --- | --- | --- | --- | --- | --- | --- | --- | --- | --- | --- |
| CCOC(=O)C1(C(=O)OCC)Nc2cccnc2N(C)N1 | 42.1 | > 100 | 34.2 | 55.3 | 32.2 | 40 | 67.5 | 29.7 | 36.1 | 73.9 |  |  |  |  |  |  |  |  |  |  |
| CNC(=O)OC(C)CN1c2ccccc2Sc2ccc(Cl)cc21 (configuration not stated) | > 10 | > 10 | > 10 | > 10 | > 10 | > 10 | > 10 |  | > 10 | > 10 |  |  |  |  |  |  |  |  |  |  |
| C[C@]12CC[C@@H]3c4ccc(OP(=O)(O)O)cc4CC[C@H]3[C@@H]1CCC2=O | > 100 | > 100 | 69.2 | > 100 | > 100 | > 100 | > 100 | > 100 | > 100 | > 100 |  |  |  |  |  |  |  |  |  |  |
| O=C(CCCCCCC(=O)Nc1ccc(N(CCCl)CCCl)cc1)NO | 8.64 | 5.6 | 2.92 | 4.26 | 12.7 | 21 | > 100 | 5.47 | 11.2 | 12.9 | 2.1 | 0.507 | 1.33 | 0.421 | 1.56 | 1.79 | 3.7 | 1.19 | 1.2 | 1.97 |
| COc1cc(C2C(C(=O)O)=C(CO)Oc3cc4c(cc32)OCO4)cc(OC)c1O (configuration not stated) |  | > 100 | > 100 | > 100 | > 100 | > 100 |  | > 100 | > 100 | > 100 |  |  |  |  |  |  |  |  |  |  |
| CCCc1[nH]c(SCCCCCCCCSc2nc(-c3ccc(F)cc3)c(CCC)[nH]2)nc1-c1ccc(F)cc1 | 30.6 |  | 67.1 | > 100 | > 100 | > 100 |  | 29.6 |  | > 100 |  |  |  |  |  |  |  |  |  |  |
| ONc1ncnc2nc[nH]c12 | > 100 | > 100 | > 100 | > 100 | > 100 | > 100 |  | > 100 | > 100 | > 100 |  |  |  |  |  |  |  |  |  |  |
| N=c1c2c(C(N)=O)cn(C3OC(CO)C(O)C3O)c2ncn1O (configuration not stated) | 0.358 | 0.477 | 0.174 | 0.491 | 9.64 | 0.607 | 1.14 | > 100 | 0.399 | 0.596 |  |  |  |  |  |  |  |  |  |  |
| Cc1cccc2nc3c(C(=O)NCCN(C)C)cccc3cc12 | 5.02 | 2.78 | 3.06 |  | 4.54 | 6.58 |  | 3.99 | 8.49 | 6.21 |  |  |  |  |  |  |  |  |  |  |
| O=S(=O)(O)c1ccc2cccc(N=Nc3c(O)ccc4ccccc34)c2c1 | > 100 | > 100 | > 100 | > 100 |  | > 100 | > 100 | > 100 | > 100 | > 100 |  |  |  |  |  |  |  |  |  |  |
| CCOC(=O)c1nc2ccc(Cl)cc2c2c1Cc1ccccc1-2 | > 100 |  | > 100 | > 100 |  | > 100 |  |  | > 100 | > 100 |  |  |  |  |  |  |  |  |  |  |
| CN(C)CC(=O)Nc1ccc(Cn2nnc3c2C(=O)c2nnn(Cc4ccc(NC(=O)CN(C)C)cc4)c2C3=O)cc1 | 0.488 | 0.266 | 0.286 |  |  | 0.679 | 0.825 |  | > 100 | 0.275 | 0.192 | 0.115 | 0.151 |  |  | 0.228 | 0.253 |  | 2.59 | 0.0843 |
| CC1SC(c2ccccc2)N(CCc2cccs2)C1=O (configuration not stated) | 15.1 | 26.1 | 3.15 | 12.4 | 15.2 | 31.2 | 15.7 | 5.59 | 16.2 | 12.3 | 3.23 | 5.47 | 1.67 | 2.98 | 4.03 | 4.72 | 2.68 | 1.27 | 3.15 | 2.99 |
| CCOC(=O)N(Cc1cccs1)c1cc(OC)c(OC)c(OC)c1 | > 100 | > 100 | > 100 | 36 | > 100 | > 100 | 98.9 |  | > 100 | > 100 |  |  |  |  |  |  |  |  |  |  |
| COc1ccc(/C(=C2/O[C@@H]([C@H]3COC(C)(C)O3)[C@H]3OC(C)(C)O[C@@H]23)c2cc(OC)c(OC)c(OC)c2)cc1O | 74.9 | > 100 | 15 | > 100 | 52 | > 100 | > 100 | 38.3 | 42.2 |  | 21.8 | 9.96 | 4.12 | 24.2 | 26.5 | 8.56 | 4.12 | 4 | 14.8 |  |
| CCS(=O)(=O)Nc1ccc(Nc2c3ccccc3nc3ccccc23)c(OC)c1 | 3.79 | 2.37 | 12.9 | 10.6 | 6.56 | 7.71 |  | 5.35 | 4.08 | 6.94 |  |  |  |  |  |  |  |  |  |  |
| Cc1nc(N)nc(N)c1-c1ccc(Cl)c(Cl)c1 | > 81 | > 87.7 | > 44.7 | > 100 | > 100 | > 100 | > 100 | 79.7 | > 100 | > 100 |  |  |  |  |  |  |  |  |  |  |
| CCN(CC)CC(C)Nc1ccc([N+](=O)[O-])c2sc3ccccc3c(=O)c12 (configuration not stated) | 16.1 | 3.76 | 2.26 |  | > 33.2 | > 100 | > 100 |  | 4.09 | 4.49 | 2.42 | 1.31 | 1.08 |  | 2.58 | 2.58 | 2.52 | 1.39 | 0.657 | 1.41 |
| CCSCCC(N)C(=O)O (configuration not stated) | > 100 | > 100 | > 100 | > 100 | > 100 | > 100 | > 100 | > 100 |  | > 100 |  |  |  |  |  |  |  |  |  |  |
| CN1CC[C@@]2(c3cccc(O)c3)CC(=O)/C(=C/c3ccccc3)[C@H]1C2 | 46.4 | 33.5 | > 54.8 | 6.21 | 13.5 | > 48 | 14.4 | 31 | 15.4 | 12.5 |  |  |  |  |  |  |  |  |  |  |
| Cn1c(=S)[nH]c2sc3c(c2c1=O)CCSC3 | > 100 | > 100 | > 100 | > 100 | > 100 | > 100 | > 100 | > 100 | > 100 | > 100 |  |  |  |  |  |  |  |  |  |  |
| COc1ccc2nc(-c3ccc(-c4noc(-c5cc(OC)c(OC)c(OC)c5)n4)cc3)[nH]c2c1 | 20 | 7.51 | 17.3 | 59.1 | 15.2 | 26.4 | > 100 | 33.5 | 54.9 | 10.7 | 4.1 | 1.67 | 3.25 | 5.29 | 2.7 | 4.93 | 20.5 | 14.3 | 23.4 | 1.9 |
